Data set [1] concerns oestrogen receptors (ERs). The conditions noted are these: cited from earlier work.
The next data set deals with T1, ERα (Homo sapiens, UniProt P03372).
T1 construct: expressed in transfected cells; host or cells: HeLa cells
T1 sequence (P03372 1-595): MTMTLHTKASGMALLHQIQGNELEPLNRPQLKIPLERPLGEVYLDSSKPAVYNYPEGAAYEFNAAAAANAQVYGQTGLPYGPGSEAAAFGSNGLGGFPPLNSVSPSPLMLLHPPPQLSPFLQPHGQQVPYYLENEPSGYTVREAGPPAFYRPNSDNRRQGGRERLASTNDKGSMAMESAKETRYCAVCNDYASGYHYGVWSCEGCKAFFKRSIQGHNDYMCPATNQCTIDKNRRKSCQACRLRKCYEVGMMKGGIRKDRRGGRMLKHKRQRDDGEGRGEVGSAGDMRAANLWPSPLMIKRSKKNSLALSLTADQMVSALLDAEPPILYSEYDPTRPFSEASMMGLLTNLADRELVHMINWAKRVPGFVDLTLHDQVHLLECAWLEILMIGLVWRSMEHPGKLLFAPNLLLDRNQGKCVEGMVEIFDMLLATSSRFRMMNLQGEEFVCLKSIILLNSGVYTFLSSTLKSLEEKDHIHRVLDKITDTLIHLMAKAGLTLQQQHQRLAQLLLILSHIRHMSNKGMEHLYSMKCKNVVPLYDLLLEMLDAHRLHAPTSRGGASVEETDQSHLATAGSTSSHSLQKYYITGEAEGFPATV
The experiment in a line: Luciferase-reporter assay for agonist activity in transiently transfected HeLa cells. It is filed as cell-based. The conditions noted are these: reporter-gene assay, 0.1-10 μM. Here is the method: HeLa cells were maintained in Eagle’s minimum essential medium (MEM; Nissui Pharmaceutical Co., Ltd, Tokyo, Japan) supplemented with 10% (v/v) foetal bovine serum treated with dextran-coated charcoal at 37 °C under 5% CO2. To analyse the agonist activity, HeLa cells were incubated at a density of 5 × 10^5 cells per 60-mm dish for 24 h, followed by transfection of 3 μg of the reporter plasmid (3 × ERE/pGL4.23) and 1 μg of the ERα expression plasmid (ERα/pcDNA3.1) using Lipofectamine LTX reagent (Thermo Fisher Scientific, Waltham, MA, USA) according to the manufacturer’s instructions. After 24 h, cells were harvested, suspended in Eagle’s MEM, and seeded into 96-well plates at 5 × 10^4 cells/well, followed by treatment with a series of the test compounds diluted with 1% bovine serum albumin (BSA)/PBS (v/v) to prepare different concentrations (0–10 μM). After a 24-h incubation, luciferase activity was measured using a Luciferase Assay system (Promega, Madison, WI, USA) according to the manufacturer’s instructions. […] Cells treated only with 1% BSA/PBS were used as a vehicle control. Each assay was performed in triplicate and repeated at least three times.
Background: In a reporter assay the amount or activity of a reporter protein is the signal.

Data set [2] deals with adult male mouse offspring. The conditions noted are these: in utero exposure to 2 μg/kg/day or 20 μg/kg/day; cited from earlier work.

On to `CC(C)(c1ccc(O)cc1)c1ccc(O)cc1` [compound 21, bisphenol A], for which, in data set [1], the “affinity for ERs weaker than 17β-oestradiol (E2)” value was > 1,000 fold. In addition, on ERα, the “ERα agonist / transcriptional activity (in words)” value is on record as “apparent agonistic activity”. Moreover, the “effect on prostate in adult male offspring (in words)” value in data set [2] was “increases prostate size and weight”.

The values are drawn from publication PMC6616570, “Discovery of novel oestrogen receptor α agonists and antagonists by screening a revisited privileged structure moiety for nuclear receptors” (Scientific Reports, 2019).
